22 compounds from patent publication US9649309B2 (priority 2014, dated 2017) can be followed below.

Where two headings read alike, the source gives them in different places.

In assay [1] the target is T1, Tyro3 (Homo sapiens (Human), UniProt Q06418). As to the kind of experiment: biochemical.
Assay [2] has as its target T2, Axl (Homo sapiens (Human), UniProt P30530). As to the kind of experiment: biochemical.
Assay [3] deals with T1, Tyro3. To be noted: read-out: IC50 Tyro3.
The target in assay [4] is T2, Axl. As to conditions: read-out: IC50 Axl.

T1 sequence (Q06418 41-890 limits assumed): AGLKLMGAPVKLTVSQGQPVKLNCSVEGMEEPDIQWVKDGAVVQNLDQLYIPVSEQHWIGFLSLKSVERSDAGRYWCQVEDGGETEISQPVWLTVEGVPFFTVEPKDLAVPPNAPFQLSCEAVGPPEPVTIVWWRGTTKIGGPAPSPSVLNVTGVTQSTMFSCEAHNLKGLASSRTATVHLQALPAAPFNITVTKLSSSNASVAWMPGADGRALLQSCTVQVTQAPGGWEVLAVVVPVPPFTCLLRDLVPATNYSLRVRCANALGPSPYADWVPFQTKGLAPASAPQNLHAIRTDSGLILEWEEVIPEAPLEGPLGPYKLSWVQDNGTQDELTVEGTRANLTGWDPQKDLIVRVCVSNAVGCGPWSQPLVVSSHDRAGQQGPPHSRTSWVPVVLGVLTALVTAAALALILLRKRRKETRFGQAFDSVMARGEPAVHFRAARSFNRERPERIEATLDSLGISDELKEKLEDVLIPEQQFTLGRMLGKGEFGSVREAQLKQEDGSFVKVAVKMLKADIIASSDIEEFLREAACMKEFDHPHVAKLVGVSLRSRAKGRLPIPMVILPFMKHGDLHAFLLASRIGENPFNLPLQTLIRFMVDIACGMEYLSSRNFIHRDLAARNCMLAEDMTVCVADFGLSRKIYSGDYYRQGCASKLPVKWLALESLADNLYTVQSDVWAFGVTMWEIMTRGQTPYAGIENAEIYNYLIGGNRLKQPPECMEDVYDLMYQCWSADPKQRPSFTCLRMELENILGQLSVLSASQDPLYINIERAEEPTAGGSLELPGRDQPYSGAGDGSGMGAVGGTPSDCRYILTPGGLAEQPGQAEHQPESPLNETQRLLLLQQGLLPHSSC
T2 sequence (P30530 26-894 limits assumed): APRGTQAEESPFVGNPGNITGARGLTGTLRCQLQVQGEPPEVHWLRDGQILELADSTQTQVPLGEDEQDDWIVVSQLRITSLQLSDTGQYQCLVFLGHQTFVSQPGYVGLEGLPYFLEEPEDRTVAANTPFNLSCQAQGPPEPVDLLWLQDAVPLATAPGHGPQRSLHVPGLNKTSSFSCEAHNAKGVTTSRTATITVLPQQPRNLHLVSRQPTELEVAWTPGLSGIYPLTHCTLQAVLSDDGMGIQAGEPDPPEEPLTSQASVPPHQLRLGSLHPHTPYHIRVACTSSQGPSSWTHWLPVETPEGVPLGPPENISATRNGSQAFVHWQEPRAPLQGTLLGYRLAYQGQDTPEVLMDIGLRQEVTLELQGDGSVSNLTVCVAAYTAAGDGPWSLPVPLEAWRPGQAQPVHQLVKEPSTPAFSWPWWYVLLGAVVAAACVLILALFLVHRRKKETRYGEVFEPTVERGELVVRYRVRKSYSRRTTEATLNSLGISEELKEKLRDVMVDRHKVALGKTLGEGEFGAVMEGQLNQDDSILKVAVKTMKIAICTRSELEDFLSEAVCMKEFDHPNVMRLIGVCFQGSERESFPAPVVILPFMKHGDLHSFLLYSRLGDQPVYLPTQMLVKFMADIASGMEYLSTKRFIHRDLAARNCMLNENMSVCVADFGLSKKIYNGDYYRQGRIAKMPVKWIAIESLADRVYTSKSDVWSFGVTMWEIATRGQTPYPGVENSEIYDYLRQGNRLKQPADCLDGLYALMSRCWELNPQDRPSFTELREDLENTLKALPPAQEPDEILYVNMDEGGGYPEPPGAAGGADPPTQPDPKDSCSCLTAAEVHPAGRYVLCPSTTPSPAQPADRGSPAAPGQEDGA

Take `CCCCNc1ncc(-c2ccc(CN3CCCC3)cn2)c(N[C@H]2CC[C@H](O)CC2)n1` [UNC2490A]: the IC50 was 18 nM against Tyro3 [1] and 36 nM against Axl [2].
Taken in the same sequence, the figures for `CCCCNc1ncc(-c2cc(N3CCCCC3)ncn2)c(N[C@H]2CC[C@H](O)CC2)n1` [UNC3198A] were 3740 nM and 6070 nM.
In the same order, the values of `CCCCNc1ncc(C(=O)NC2CC(C)(C)N(C)C(C)(C)C2)c(N[C@H]2CC[C@H](O)CC2)n1` [UNC2695A] are 76 nM and 233 nM.
In the same order, the values of `CCCCNc1ncc(-c2cc(NC3CCCC3)ncn2)c(N[C@H]2CC[C@H](O)CC2)n1` [UNC3199A] are 847 nM and 1360 nM.
Consider `CCCCNc1ncc(-c2ccc(CN3CC(F)(F)C3)o2)c(N[C@H]2CC[C@H](O)CC2)n1` [UNC2900A], for which the results for the half-maximal inhibitory concentration (IC50) against Tyro3 [1] and at Axl [2] were 370 nM and 1850 nM, respectively.
In the same order, the values of `CCCCNc1ncc(C(=O)NC2CCN(C3CCN(C)CC3)CC2)c(N[C@H]2CC[C@H](O)CC2)n1` [UNC2698A] are 43 nM and 175 nM.
In the same order, the values of `CCCCNc1ncc(-c2ccc(F)cn2)c(NC[C@H]2CC[C@H](N)CC2)n1` [UNC3021A] are 114 nM and 621 nM.
Taken in the same sequence, the figures for `CCCCNc1ncc(-c2ccc(CN3CCCN(C)CC3)cn2)c(N[C@H]2CC[C@H](O)CC2)n1` [UNC2405A] were 98 nM and 183 nM.
Turning to `CCCCNc1ncc(-c2ccc(CCCN3CCN(C)CC3)cn2)c(N[C@H]2CC[C@H](O)CC2)n1` [UNC2792A], the 50% inhibitory concentration (IC50) on Tyro3 [1] turned out to be 75 nM; against Axl [2] it was 191 nM.
Consider `CCCCNc1ncc(-c2ccc(C(=O)N(C)C3CCN(C)CC3)cn2)c(N[C@H]2CC[C@H](O)CC2)n1` [UNC2915A], for which the results for the IC50 against Tyro3 [1] and against Axl [2] were 6.5 nM and 49 nM, respectively.
In the same order, the values of `CCCCNc1ncc(-c2cc(NC3CCCCC3)ncn2)c(N[C@H]2CC[C@H](O)CC2)n1` [UNC3194A] are 239 nM and 260 nM.
Taken in the same sequence, the figures for `CCCCNc1ncc(-c2cc(N3CCCC3)ncn2)c(N[C@H]2CC[C@H](O)CC2)n1` [UNC3195A] were 230 nM and 188 nM.
For `CCCCNc1ncc(C(=O)NCCCCO)c(N[C@H]2CC[C@H](O)CC2)n1` [UNC1844A], the IC50 at Tyro3 [1] amounted to 1080 nM; at Axl [2], 1180 nM.
In the same order, the values of `CCCCNc1ncc(-c2cccc(CN3CCN(C)CC3)n2)c(N[C@H]2CC[C@H](O)CC2)n1` [UNC2622A] are 162 nM and 296 nM.
For `CCCCNc1ncc(-c2ncc(CN3CCCC3)s2)c(N[C@H]2CC[C@H](O)CC2)n1` [UNC4223A], the 50% inhibitory concentration (IC50) at Tyro3 [1] turned out to be 14 nM; against Axl [2], 29 nM.
With `CCCCNc1ncc(-c2cncc(NC3CCCCC3)n2)c(N[C@H]2CC[C@H](O)CC2)n1` [UNC3137A], the values for the IC50 on Tyro3 [3] and on Axl [4] were 412 nM and 1230 nM, respectively.
In the case of `CCCCNc1ncc(C(=O)NCCCN2CCOCC2)c(NCCCC)n1` [UNC1840A], the IC50 on Tyro3 [3] came to 4640 nM; on Axl [4], 5540 nM.
Taken in the same sequence, the figures for `CCCCNc1ncc(-c2nccs2)c(N[C@H]2CC[C@H](O)CC2)n1` [UNC3047A] were 157 nM and 597 nM.
Taken in the same sequence, the figures for `CCCCNc1ncc(-c2cc(Nc3cccc(C(C)(C)C)c3)ncn2)c(N[C@H]2CC[C@H](O)CC2)n1` [UNC4333A] were 867 nM and 30000 nM.
Taken in the same sequence, the figures for `CCCCNc1ncc(-c2ccc(CC3CCNC3)cn2)c(N[C@H]2CC[C@H](O)CC2)n1` (stereo partly drawn) [UNC4386A, trans-4-((2-(butylamino)-5-(5-(pyrrolidin-3-ylmethyl)pyridin-2-yl)pyrimidin-4-yl)amino)cyclohexan-1-ol] were 53 nM and 53 nM.
With `CCCCNc1ncc(C(=O)NCc2ccc(-c3ccccc3)nc2)c(N[C@H]2CC[C@H](O)CC2)n1` [UNC4234A], the results for the IC50 at Tyro3 [3] and on Axl [4] were 195 nM and 470 nM, respectively.
Taken in the same sequence, the figures for `CCCCNc1ncc(-c2cc(O)c(CN3CCCC3)cn2)c(N[C@H]2CC[C@H](O)CC2)n1` [UNC4230A] were 734 nM and 1760 nM.
